Several values for one entry are separate records, joined by “and”; a condition that tells them apart may be missing. Identical values can stand only once. Like-named read-outs stand apart in the source and are kept apart here.
Assays:
[1] = tested on: human colonic epithelial cells (HCEC); assay: cell viability, resazurin reduction assay, HCEC; conditions: 72 h; for IC50: read-out: IC50-values HCEC
Procedure: (§1) To assess the cytotoxicity of newly developed PARP inhibitors, cells were cultivated in translucent 96-well plates overnight and treated with PARP inhibitors or cytostatic drugs for 72 h. For the assessment of synergistic activity, cells were pretreated with the inhibitors for 2 h, before the inhibitor or cytostatic drug was added. Cell viability was assessed by the resazurin reduction assay (RRA) as described previously [41], and fluorescence was measured using a Spark® Multi-well reader (Tecan, Crailsheim, Germany). IC50 values were calculated using GraphPad Prism 9.0 software (GraphPad Software Inc., Boston, MA, USA). To this end, concentrations were transformed into the log scale, plotted against the cell viability and the curve was fitted by nonlinear regression with variable slope, providing the IC50 values.

[2] = tested on: HCT116 PARP-1+/+ cells; assay: cell viability, resazurin reduction assay, HCT116 PARP-1+/+; conditions: for IC50: read-out: IC50-values HCT116 PARP1+/+
Procedure: as §1

[3] = tested on: HCT116 BRCA2−/− cells; assay: cell viability, resazurin reduction assay, HCT116 BRCA2-/-; conditions: for IC50: read-out: IC50-values HCT116 BRCA2−/−
Procedure: as §1

[4] = tested on: DLD-1 ATRs/s cells; assay: cell viability, resazurin reduction assay, DLD-1 ATRs/s; conditions: for IC50: read-out: IC50-values DLD-1 ATRs/s
Procedure: (§2) To assess the cytotoxicity of newly developed PARP inhibitors, cells were cultivated in translucent 96-well plates overnight and treated with PARP inhibitors or cytostatic drugs for 72 h. […] Cell viability was assessed by the resazurin reduction assay (RRA) as described previously [41], and fluorescence was measured using a Spark® Multi-well reader (Tecan, Crailsheim, Germany). IC50 values were calculated using GraphPad Prism 9.0 software (GraphPad Software Inc., Boston, MA, USA). To this end, concentrations were transformed into the log scale, plotted against the cell viability and the curve was fitted by nonlinear regression with variable slope, providing the IC50 values.

[5] = tested on: HCT116 WT cells; assay: cell viability, resazurin reduction assay, HCT116 WT; conditions: for IC50: read-out: IC50-values HCT116 WT
Procedure: as §2

[6] = tested on: Caco-2 cells; assay: cell viability, resazurin reduction assay, Caco-2; conditions: for IC50: Homo sapiens, read-out: IC50-values Caco-2
Procedure: as §1

[7] = tested on: DLD-1 WT cells; assay: cell viability, resazurin reduction assay, DLD-1 WT; conditions: for IC50: read-out: IC50-values DLD-1 WT
Procedure: as §2

[8] = tested on: HCT116 PARP-1−/− cells; assay: cell viability, resazurin reduction assay, HCT116 PARP-1-/-; conditions: for IC50: read-out: IC50-values HCT116 PARP1−/−; for higher sensitivity of HCT116 PARP-1−/− than PARP-1+/+: from IC50 values of Table 1
Procedure: as §1

[9] = tested on: γH2AX formation in HCT116 BRCA2−/− cells; assay: γH2AX Western blot in HCT116 BRCA2-/- cells; conditions: IT 0.25 µM, 24 h, compared to WT
Procedure: (§3) Quantification of chromatin-trapped PARP-1 was performed as described elsewhere [42]. Briefly, HCT116 cells were harvested, and pellets were lysed in buffer containing 150 mM KCl, 2.5 mM MgCl2, 50 mM HEPES pH 7.8, 5 mM EDTA pH 8, 3 mM dithiothreitol (DTT), 10% glycerol, 0.5% Triton X-100, and freshly added protease inhibitor cocktail (Roche) for 15 min on ice. The chromatin-bound protein fraction was isolated by centrifugation at 4 °C for 15 min and 16.000× g. After transferring the soluble fraction, the chromatin-containing pellet was washed twice in lysis buffer and sonicated for 3 min. […] The proteins of interest were detected using a c300 chemiluminescence imager (Azure Biosystems, Dublin, CA, USA). […] The signal intensity (e.g., PARP-1 or γH2AX) of each lane was quantified and subsequently normalized to the respective loading control as indicated in the figure legends, which was analyzed in each experiment. […]

[10] = tested on: γH2AX formation in HCT116 WT cells; assay: γH2AX Western blot in HCT116 WT cells; conditions: X17613 50 µM or IT 0.25 µM, 24 h
Procedure: Quantification of chromatin-trapped PARP-1 was performed as described elsewhere [42]. Briefly, HCT116 cells were harvested, and pellets were lysed in buffer containing 150 mM KCl, 2.5 mM MgCl2, 50 mM HEPES pH 7.8, 5 mM EDTA pH 8, 3 mM dithiothreitol (DTT), 10% glycerol, 0.5% Triton X-100, and freshly added protease inhibitor cocktail (Roche) for 15 min on ice. The chromatin-bound protein fraction was isolated by centrifugation at 4 °C for 15 min and 16.000× g. After transferring the soluble fraction, the chromatin-containing pellet was washed twice in lysis buffer and sonicated for 3 min. The soluble and chromatin fractions were mixed with self-made 5× Laemmli buffer (200 mM TRIS pH 6.8, 40% glycerol, 8% SDS, 4 % ß-mercaptoethanol, 0.08% Bromphenol Blue) and incubated at 95 °C for 10 min. Samples were then separated by SDS-PAGE followed by Western blot analysis essentially as described previously [43]. For the analysis of γH2AX, cells were directly harvested in 1× Laemmli buffer, incubated at 95 °C for 5 min, and subjected to SDS-PAGE and subsequent Western blot analysis [44]. […] The proteins of interest were detected using a c300 chemiluminescence imager (Azure Biosystems, Dublin, CA, USA). Densitometric image analysis was conducted by applying the software AzureSpot version 2.0.062 (Azure Biosystems, USA). The signal intensity (e.g., PARP-1 or γH2AX) of each lane was quantified and subsequently normalized to the respective loading control as indicated in the figure legends, which was analyzed in each experiment. […]

[11] = molecular target: T1, PARP-1 (Homo sapiens, UniProt P09874); assay: chemiluminescence-based PARP-1 assay kit (recombinant enzyme); conditions: IC50 PARP-1 screening assay kit, recombinant PARP-1, 1 h RT, n = 2
T1 sequence (P09874 whole entry): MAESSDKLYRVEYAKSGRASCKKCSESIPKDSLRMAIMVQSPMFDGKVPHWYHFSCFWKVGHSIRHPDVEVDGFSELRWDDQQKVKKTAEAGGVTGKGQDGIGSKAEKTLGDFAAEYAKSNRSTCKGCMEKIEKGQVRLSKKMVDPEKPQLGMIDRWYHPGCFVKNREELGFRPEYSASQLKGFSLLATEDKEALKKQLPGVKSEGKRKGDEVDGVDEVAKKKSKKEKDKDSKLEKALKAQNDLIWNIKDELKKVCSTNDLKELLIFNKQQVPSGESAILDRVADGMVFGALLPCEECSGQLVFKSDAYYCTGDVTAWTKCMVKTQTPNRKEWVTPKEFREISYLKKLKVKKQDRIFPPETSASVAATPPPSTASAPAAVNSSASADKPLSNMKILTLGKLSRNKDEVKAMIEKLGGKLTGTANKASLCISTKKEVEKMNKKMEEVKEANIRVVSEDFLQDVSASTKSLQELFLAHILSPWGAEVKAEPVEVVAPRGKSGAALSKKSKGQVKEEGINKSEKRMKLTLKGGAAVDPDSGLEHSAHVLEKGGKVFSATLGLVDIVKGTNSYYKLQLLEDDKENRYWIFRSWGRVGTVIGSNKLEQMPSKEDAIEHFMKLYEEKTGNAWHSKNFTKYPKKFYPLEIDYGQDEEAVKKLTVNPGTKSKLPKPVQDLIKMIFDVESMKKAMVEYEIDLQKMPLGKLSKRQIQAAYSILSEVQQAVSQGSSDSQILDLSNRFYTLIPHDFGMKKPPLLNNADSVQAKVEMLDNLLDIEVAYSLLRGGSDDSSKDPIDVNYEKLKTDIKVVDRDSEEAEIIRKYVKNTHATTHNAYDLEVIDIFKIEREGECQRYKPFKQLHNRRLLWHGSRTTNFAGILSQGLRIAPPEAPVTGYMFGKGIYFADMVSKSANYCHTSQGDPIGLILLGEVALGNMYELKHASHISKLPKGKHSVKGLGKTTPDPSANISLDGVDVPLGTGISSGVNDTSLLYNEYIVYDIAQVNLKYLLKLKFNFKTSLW
Description: Twelve compounds were screened regarding their ability to inhibit PARP-1 enzyme activity in vitro. Therefore, we utilized a chemiluminescence-based PARP-1 assay kit (BPS Bioscience, San Diego, CA, USA) and performed two independent experiments according to the manufacturer’s instructions. Briefly, non-transparent 96-well plates were coated with histones overnight. […] After adding activated DNA and biotinylated NAD^+, the ADP-ribosylation reaction was initiated by the addition of PARP-1 enzyme and incubated at RT for 1 h. Quantification of biotinylated PAR was conducted by using Streptavidin–HRP and subsequent ECL-based detection of chemiluminescence, applying a Spark® multiplate reader (Tecan, Crailsheim, Germany).

[12] = tested on: H2O2-induced PAR formation (PARP-1 activity) in HCT116 cells; assay: PAR immunofluorescence: H2O2-induced PAR formation in HCT116 cells; assay type: cell-based, human; conditions: for IC50: Homo sapiens, HCT-116, 2 h pretreatment, 1 mM H2O2 5 min, unit inferred, read-out: IC50 PAR formation in HCT116 cells (Figure A3A); for PAR signal: concentration of 100 nM; for PAR signal / PAR formation: H2O2-induced; for PAR formation: 10 µM / highest concentration
Procedure: Cells lines were re-authenticated by p53, PARP-1, ATR, and BRCA2 immunoblotting, by their characteristic differential response to genotoxic agents and their typical cell morphology. HCT116, HCT116 BRCA2^−/−, DLD-1 ATR^+/+ and DLD-1 ATR^s/s cells were maintained in DMEM, whereas HCT116 PARP-1^+/+ and HCT116 PARP-1^−/− cells were maintained in RPMI1640 containing 10% FCS and 1% penicillin/streptomycin in a humidified atmosphere at 37 °C and 5% CO2. Caco-2 cells were cultured in MEM with 10% FCS, 1% penicillin/streptomycin, and nonessential amino acids. […] The media and supplements were obtained from PAN-Biotech (Aidenbach, Germany) and Thermo Fisher Scientific (Darmstadt, Germany). Cell culture was frequently tested for contamination with mycoplasma by PCR using the Venor® GeM Classic kit (Minerva Biolabs, Berlin, Germany) and immunofluorescence microscopy with nuclear staining. […] Cells were exposed for 1 h for the quantification of PARP-1 trapping or 2 h for assessing the inhibitory potential by confocal fluorescence microscopy. […] If the PARPi treatment was conducted in combination with cytostatic drugs for 24 h (γH2AX Western blot analysis) or 72 h (cytotoxicity testing), the PARPi was added 2 h prior.
The activity of potential PARP inhibitors was tested in a cell model using immunofluorescence-based detection of PAR essentially as reported previously. HCT116 cells were seeded in Ibidi 12-well chamber slides and cultivated until they reached 70% confluence. Induction of PARylation was achieved by adding 1 mM H2O2 in PBS/1 mM MgCl2 for 5 min at 37 °C. Cells were washed with PBS/1 mM MgCl2 and fixed by adding 4% PFA at RT. After 20 min, cells were washed with PBS/100 mM glycine for 1 min and permeabilized with PBS/0.3% Triton X-100 for 3 min. Blocking of the cells was conducted by adding PBS/0.05% Tween containing 5% powdered milk for 1 h at RT. […] Cells were washed and an Alexa488-coupled secondary antibody was added for 1 h at RT. The slides were mounted with VectaShield containing DAPI and analyzed by confocal microscopy using a Zeiss Axio Observer 7 microscope (Oberkochen, Germany) equipped with a 63× oil objective (Plan-Apochromat 63×/1.40 DIC M27) and a LSM900 confocal laser scanner (Zeiss, Oberkochen, Germany). Images were analyzed using Zeiss Zen software version 3.4 and ImageJ v1.53t (NIH, Bethesda, MD, USA). Briefly, nuclei were identified based on the DAPI signal and marked as regions of interest (ROI). Subsequently, the mean PAR signal in the identified ROI was quantified in each image and exported for further analysis. For the individual experiments, the mean PAR intensity was averaged for each treatment group and the control was set to 100%. Only images with a minimum of 4 cells were included in the analysis and at least 5 images were assessed per treatment group. The experiments were conducted in at least 3 biological replicates. To derive IC50 concentrations, relative PAR levels of the experiments were transferred to GraphPad Prism 9.0 Software (GraphPad Software Inc., Boston, MA, USA) for a nonlinear regression analysis applying a three-parameter model.

[13] = molecular target: T1, PARP-1; assay: chromatin retention assay (PARP-1 trapping) in HCT116 cells; conditions: HCT116, MMS 1 mM 1 h with inhibitor
Procedure: as §3

[14] = molecular target: T1, PARP-1; assay: chromatin retention assay (PARP-1 trapping) in Caco-2 cells; conditions: Caco-2, MMS 1 mM 1 h with inhibitor
Procedure: as §3

## O=c1[nH]cc(F)c(=O)[nH]1 [5-FU, 5-fluorouracil]
[1]; Homo sapiens, HCEC
  IC50: 26.2 µM
[2]; Homo sapiens, HCT-116, 72 h
  IC50: 0.24 µM
[3]; Homo sapiens, HCT-116, 72 h
  IC50: 0.34 µM
[4]; Homo sapiens, DLD-1, 72 h
  IC50: 0.22 µM
[5]; Homo sapiens, HCT-116, 72 h
  IC50: 0.5 µM
[6]; 72 h, RRA
  IC50-values Caco-2: -
[7]; Homo sapiens, DLD-1, 72 h
  IC50: 0.35 µM
[8]; Homo sapiens, HCT-116, 72 h
  IC50: 0.15 µM
[8]
  higher sensitivity of HCT116 PARP-1−/− than PARP-1+/+: less affected

## CCc1c2c(nc3ccc(OC(=O)N4CCC(N5CCCCC5)CC4)cc13)-c1cc3c(c(=O)n1C2)COC(=O)[C@]3(O)CC [IT, irinotecan]
[1]; Homo sapiens, HCEC
  IC50: 2.95 µM
[2]; Homo sapiens, HCT-116, 72 h
  IC50: 0.93 µM
[9]
  γH2AX, mono-treatment: slightly higher γH2AX levels
[3]; Homo sapiens, HCT-116, 72 h
  IC50: 0.16 µM
[4]; Homo sapiens, DLD-1, 72 h
  IC50: 2.99 µM
[5]; Homo sapiens, HCT-116, 72 h
  IC50: 1.28 µM
[6]; Caco-2, 72 h
  IC50: 66.5 µM
[7]; Homo sapiens, DLD-1, 72 h
  IC50: 4.19 µM
[8]; Homo sapiens, HCT-116, 72 h
  IC50: 0.35 µM
[8]
  higher sensitivity of HCT116 PARP-1−/− than PARP-1+/+: 2.5–3 fold
[10]
  γH2AX, mono-treatment: significant induction of γH2AX

## O=C1[O][Pt]2([NH][C@@H]3CCCC[C@H]3[NH]2)[O]C1=O [OXA, oxaliplatin]
[1]; RRA
  IC50: 40.7 µM
[2]; 72 h, RRA
  IC50: 0.71 µM
[3]; 72 h, RRA
  IC50: 0.25 µM
[4]; 72 h, RRA
  IC50: 9.08 µM
[5]; 72 h, RRA
  IC50: 1.19 µM
[7]; 72 h, RRA
  IC50: 8.77 µM
[8]
  higher sensitivity of HCT116 PARP-1−/− than PARP-1+/+: 2.5–3 fold
[8]; 72 h, RRA
  IC50: 0.28 µM

## COC(=O)C1CC(=O)c2cccc3[nH]c(C)c1c23 (centres unmarked) [X17616]
[11]
  IC50: 9.2 µM and 9.17 µM

## CNC(=O)C1CC(=O)c2cccc3[nH]c(C)c1c23 (centres unmarked) [X17618, N,2-dimethyl-5-oxo-1,3,4,5-tetrahydrobenzo[cd]indole-3-carboxamide]
[12]
  IC50: 0.00538 µM
  PAR signal: significant decrease in the PAR signal
[1]; Homo sapiens, HCEC
  IC50: > 50 µM
[1]; nonmalignant HCEC, up to 50 µM
  cell viability, monotreatment: no effect on HCEC
[11]
  IC50: 2.84 µM
[2]; HCT116 PARP-1+/+, 72 h, up to 50 µM
  cell viability, monotreatment: Neither X17613 nor X17618 decreased cell viability
[2]; HCT116 PARP-1+/+, IT 0.5 µM, 5-FU 0.25 µM, OXA 0.5 µM, 72 h, PARPi added 2 h prior
  cell viability in combination with cytostatics: did not affect the cytotoxicity of the anticancer drugs
[2]; Homo sapiens, HCT-116, 72 h
  IC50: > 50 µM
[3]; HCT116 BRCA2−/−, highest test concentration of 50 µM, 72 h
  decrease of viability: about 25%
[3]; Homo sapiens, HCT-116, 72 h
  IC50: > 50 µM
[4]; DLD-1 ATRs/s, 72 h
  cell viability, monotreatment: no effects
[4]; Homo sapiens, DLD-1, 72 h
  IC50: > 50 µM
[5]; HCT116 WT, 72 h, up to 50 µM
  cell viability, monotreatment: no impact
[5]; Homo sapiens, HCT-116, 72 h
  IC50: > 50 µM
[6]; Caco-2, 72 h, up to 50 µM
  cell viability, monotreatment: no impact on cell viability at all
[6]; Caco-2, IT 10 µM, 5-FU 5 µM, OXA 1 µM
  sensitization towards the anticancer drugs: no sensitization towards the anticancer drugs
[6]; Caco-2, 72 h
  IC50: > 50 µM
[7]; DLD-1 WT, 72 h
  cell viability, monotreatment: no effects
[7]; Homo sapiens, DLD-1, 72 h
  IC50: > 50 µM
[13]
  chromatin-bound PARP-1 (PARP-1 trapping): No enrichment of PARP-1 in the chromatin fraction
[8]; HCT116 PARP-1−/−, 72 h, up to 50 µM
  cell viability, monotreatment: Neither X17613 nor X17618 decreased cell viability
[8]; HCT116 PARP-1−/−, IT 0.5 µM, 5-FU 0.25 µM, OXA 0.5 µM, 72 h, PARPi added 2 h prior
  cell viability in combination with cytostatics: did not affect the cytotoxicity of the anticancer drugs
[8]; Homo sapiens, HCT-116, 72 h
  IC50: > 50 µM
[14]
  PARP-1 trapping: no effects were detected

## Cc1[nH]c2cccc3c2c1C(C(=O)NCc1ccco1)CC3=O (centres unmarked) [X17620, N-(furan-2-ylmethyl)-2-methyl-5-oxo-1,3,4,5-tetrahydrobenzo[cd]indole-3-carboxamide]
[12]
  PAR formation: no effect on PAR formation
[11]
  IC50: 0.482 µM

## Cc1[nH]c2cccc3c2c1C(C(=O)N1CCOCC1)CC3=O (centres unmarked) [X17621, 2-methyl-3-(morpholine-4-carbonyl)-3,4-dihydrobenzo[cd]indol-5(1H)-one]
[12]
  PAR formation: did not entirely inhibit PAR formation
  IC50: 0.0167 µM
  PAR signal: significant decrease in the PAR signal
[11]
  IC50: 1.63 µM
